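96-well plates; 48 h exposure; 5 concentrations. Endpoints by linear interpolation between flanking doses. Not reached: highest tested concentration assigned. TGI: concentration producing complete growth inhibition.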
Experiments:
Test in all cases: NCI-60 cell line screen, 48 h
786-0 renal = test system: 786-0 renal
A498 renal = test system: A498 renal
ACHN renal = test system: ACHN renal
BT-549 breast = test system: BT-549 breast
CAKI-1 renal = test system: CAKI-1 renal
CCRF-CEM leukemia = test system: CCRF-CEM leukemia
COLO 205 colon = test system: COLO 205 colon
DU-145 prostate = test system: DU-145 prostate
EKVX NSCLC = test system: EKVX NSCLC
HCT-116 colon = test system: HCT-116 colon
HCT-15 colon = test system: HCT-15 colon
HL-60(TB) leukemia = test system: HL-60(TB) leukemia
HOP-62 NSCLC = test system: HOP-62 NSCLC
HS 578T breast = test system: HS 578T breast
HT29 colon = test system: HT29 colon
IGROV1 ovarian = test system: IGROV1 ovarian
K-562 leukemia = test system: K-562 leukemia
KM12 colon = test system: KM12 colon
LOX IMVI melanoma = test system: LOX IMVI melanoma
M14 melanoma = test system: M14 melanoma
MALME-3M melanoma = test system: MALME-3M melanoma
MCF7 breast = test system: MCF7 breast
MDA-MB-231 breast = test system: MDA-MB-231 breast
MDA-MB-435 = test system: MDA-MB-435
MDA-N = test system: MDA-N
MOLT-4 leukemia = test system: MOLT-4 leukemia
NCI-H226 lung = test system: NCI-H226 lung
NCI-H23 lung = test system: NCI-H23 lung
NCI-H460 lung = test system: NCI-H460 lung
NCI/ADR-RES ovarian = test system: NCI/ADR-RES ovarian
OVCAR-3 ovarian = test system: OVCAR-3 ovarian
OVCAR-5 ovarian = test system: OVCAR-5 ovarian
OVCAR-8 ovarian = test system: OVCAR-8 ovarian
PC-3 prostate = test system: PC-3 prostate
RPMI-8226 leukemia = test system: RPMI-8226 leukemia
RXF 393 renal = test system: RXF 393 renal
SF-268 CNS = test system: SF-268 CNS
SF-295 CNS = test system: SF-295 CNS
SF-539 CNS = test system: SF-539 CNS
SK-MEL-2 melanoma = test system: SK-MEL-2 melanoma
SK-MEL-28 melanoma = test system: SK-MEL-28 melanoma
SK-MEL-5 melanoma = test system: SK-MEL-5 melanoma
SK-OV-3 ovarian = test system: SK-OV-3 ovarian
SN12C renal = test system: SN12C renal
SNB-19 CNS = test system: SNB-19 CNS
SR leukemia = test system: SR leukemia
SW-620 colon = test system: SW-620 colon
TK-10 renal = test system: TK-10 renal
U251 CNS = test system: U251 CNS
UACC-257 melanoma = test system: UACC-257 melanoma
UACC-62 melanoma = test system: UACC-62 melanoma
A549 NSCLC = test system: A549 NSCLC
HCC-2998 colon = test system: HCC-2998 colon
NCI-H522 lung = test system: NCI-H522 lung
OVCAR-4 ovarian = test system: OVCAR-4 ovarian
SNB-75 CNS = test system: SNB-75 CNS
T-47D breast = test system: T-47D breast
UO-31 renal = test system: UO-31 renal

Measured: TGI

O=c1[nH]c2ccc(CC(=S)N3CCOCC3)cc2s1
not listed: A549 NSCLC | HCC-2998 colon | NCI-H522 lung | OVCAR-4 ovarian | SNB-75 CNS | T-47D breast | UO-31 renal
> 100 µM: all other assays above

O=C1NC2(CCCCC2)N=C2C(Cl)CCCC12Cl (stereo unspecified)
not listed: CAKI-1 renal | HCT-116 colon | UACC-257 melanoma
> 100 µM: all other assays above
